Assay results reported in patent US20170050957A1, “4-AMINO-6-(HETEROCYCLIC)PICOLINATES AND 6-AMINO-2-(HETEROCYCLIC)PYRIMIDINE-4-CARBOXYLATES AND THEIR USE AS HERBICIDES” (Dow AgroSciences LLC, priority 2013, published 2017).
Read-outs that look alike come from different tables or passages of the source.

Assays:
[1] = tested on: Key Broadleaf Weed and Crop Species; experiment: Post-emergent Test II herbicidal activity (Table 15); assay type: in vivo; conditions: post-emergence, 336 h, 14 d; for pest or weed control at 35 g/ha: 35 g ai/ha; for pest or weed control at 70 g/ha: 70 g ai/ha; for pest or weed control at 140 g/ha: 140 g ai/ha
How it was run: (§1)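 Visual injury rating (0 = none, 100% = complete kill) made 14 d after treatment, relative to untreated plants. Compounds in an acetone/DMSO/aqueous crop-oil/surfactant spray, at top rate and serial 1/2×-1/16× rates, were applied at 187 L/ha overhead to first-second true leaf plants raised 7-21 d in greenhouse.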

[2] = tested on: Key Grass and Sedge Weeds as well as Grass Crops; experiment: Post-emergent Test II herbicidal activity (Table 16); assay type: in vivo; conditions: post-emergence, 336 h, 14 d; for pest or weed control at 35 g/ha: 35 g ai/ha; for pest or weed control at 70 g/ha: 70 g ai/ha; for pest or weed control at 140 g/ha: 140 g ai/ha
How it was run: as §1

[3] = Abutilon theophrasti, velvetleaf (Abutilon theophrasti), read-out: Visual Growth Reduction (%) 14 Days After Application, ABUTH
[4] = Amaranthus retroflexus, redroot pigweed (Amaranthus retroflexus), read-out: Visual Growth Reduction (%) 14 Days After Application, AMARE
[5] = Brassica napus, oilseed rape, canola (Brassica napus), read-out: Visual Growth Reduction (%) 14 Days After Application, BRSNN
[6] = Chenopodium album, lambsquarters (Chenopodium album), read-out: Visual Growth Reduction (%) 14 Days After Application, CHEAL
[7] = Euphorbia heterophylla, wild poinsettia (Euphorbia heterophylla), read-out: Visual Growth Reduction (%) 14 Days After Application, EPHHL
[8] = Helianthus annuus, sunflower (Helianthus annuus), read-out: Visual Growth Reduction (%) 14 Days After Application, HELAN
[9] = Cyperus esculentus, yellow nutsedge (Cyperus esculentus), read-out: Visual Growth Reduction (%) 14 Days After Application, CYPES
[10] = Echinochloa crus-galli, barnyardgrass (Echinochloa crus-galli), read-out: Visual Growth Reduction (%) 14 Days After Application, ECHCG
[11] = Oryza sativa, rice (Oryza sativa), read-out: Visual Growth Reduction (%) 14 Days After Application, ORYSA
[12] = Setaria faberi, giant foxtail (Setaria faberi), read-out: Visual Growth Reduction (%) 14 Days After Application, SETFA
[13] = Triticum aestivum, wheat, spring (Triticum aestivum), read-out: Visual Growth Reduction (%) 14 Days After Application, TRZAS
[14] = Zea mays, maize, corn (Zea mays), read-out: Visual Growth Reduction (%) 14 Days After Application, ZEAMX

Row | Structure (SMILES) | melting point | pest or weed control at 35 g/ha [1, 3] | pest or weed control at 70 g/ha [1, 3] | pest or weed control at 140 g/ha [1, 3] | pest or weed control at 70 g/ha [1, 4] | pest or weed control at 35 g/ha [1, 5] | pest or weed control at 70 g/ha [1, 5] | pest or weed control at 140 g/ha [1, 5] | pest or weed control at 35 g/ha [1, 6] | pest or weed control at 70 g/ha [1, 6] | pest or weed control at 140 g/ha [1, 6] | pest or weed control at 35 g/ha [1, 7] | pest or weed control at 70 g/ha [1, 7] | pest or weed control at 140 g/ha [1, 7] | pest or weed control at 35 g/ha [1, 8] | pest or weed control at 70 g/ha [1, 8] | pest or weed control at 140 g/ha [1, 8] | pest or weed control at 35 g/ha [2, 9] | pest or weed control at 70 g/ha [2, 9] | pest or weed control at 140 g/ha [2, 9] | also measured
1 | COC(=O)c1nc(-c2ccc3cc[nH]c3c2F)c(F)c(N)c1OC [Compound 1.20] | 203 to 205 °C | 45 to 59% | 60 to 74% | 60 to 74% | 85 to 94% | 95 to 100% | 95 to 100% | 95 to 100% | 95 to 100% | 95 to 100% | 95 to 100% | 95 to 100% | 95 to 100% | 95 to 100% | 95 to 100% | 95 to 100% | 95 to 100% | 0 to 29% | 0 to 29% | 0 to 29% | pest or weed control at 35 g/ha [1, 4]: 75 to 84%; pest or weed control at 140 g/ha [1, 4]: 95 to 100%; pest or weed control at 35 g/ha [2, 10]: 0 to 29%; pest or weed control at 70 g/ha [2, 10]: 60 to 74%; pest or weed control at 140 g/ha [2, 10]: 75 to 84%; pest or weed control at 35 g/ha [2, 11]: 0 to 29%; pest or weed control at 70 g/ha [2, 11]: 0 to 29%; pest or weed control at 140 g/ha [2, 11]: 0 to 29%; pest or weed control at 35 g/ha [2, 12]: 45 to 59%; pest or weed control at 70 g/ha [2, 12]: 75 to 84%; pest or weed control at 140 g/ha [2, 12]: 85 to 94%; pest or weed control at 35 g/ha [2, 13]: 0 to 29%; pest or weed control at 70 g/ha [2, 13]: 45 to 59%; pest or weed control at 140 g/ha [2, 13]: 60 to 74%; pest or weed control at 35 g/ha [2, 14]: 30 to 44%; pest or weed control at 70 g/ha [2, 14]: 45 to 59%; pest or weed control at 140 g/ha [2, 14]: 60 to 74%
2 | COC(=O)c1nc(-c2cccc3[nH]ccc23)c(F)c(N)c1Cl [Compound 1.40] | 233 to 236 °C | 0 to 29% | 0 to 29% | 0 to 29% | 95 to 100% | 0 to 29% | 0 to 29% | 0 to 29% | 0 to 29% | 0 to 29% | 0 to 29% | 0 to 29% | 0 to 29% | 0 to 29% | 0 to 29% | 30 to 44% | 45 to 59% | 0 to 29% | 0 to 29% | 0 to 29% | pest or weed control at 35 g/ha [2, 10]: 0 to 29%; pest or weed control at 70 g/ha [2, 10]: 0 to 29%; pest or weed control at 140 g/ha [2, 10]: 0 to 29%; pest or weed control at 35 g/ha [2, 11]: 0 to 29%; pest or weed control at 70 g/ha [2, 11]: 0 to 29%; pest or weed control at 140 g/ha [2, 11]: 0 to 29%; pest or weed control at 35 g/ha [2, 12]: 0 to 29%; pest or weed control at 70 g/ha [2, 12]: 0 to 29%; pest or weed control at 140 g/ha [2, 12]: 0 to 29%; pest or weed control at 35 g/ha [2, 13]: 0 to 29%; pest or weed control at 70 g/ha [2, 13]: 0 to 29%; pest or weed control at 140 g/ha [2, 13]: 0 to 29%; pest or weed control at 35 g/ha [2, 14]: 0 to 29%; pest or weed control at 70 g/ha [2, 14]: 0 to 29%; pest or weed control at 140 g/ha [2, 14]: 0 to 29%
3 | COC(=O)c1nc(-c2ccc(Cl)c3[nH]ccc23)cc(N)c1Cl [Compound 1.44] | 116 °C | 0 to 29% | 75 to 84% | 85 to 94% | 95 to 100% | 0 to 29% | 0 to 29% | 30 to 44% | 85 to 94% | 85 to 94% | 95 to 100% | 45 to 59% | 75 to 84% | 85 to 94% | 0 to 29% | 0 to 29% | 0 to 29% | 0 to 29% | 0 to 29% | 0 to 29% | pest or weed control at 35 g/ha [1, 4]: 85 to 94%; pest or weed control at 140 g/ha [1, 4]: 95 to 100%; pest or weed control at 35 g/ha [2, 10]: 0 to 29%; pest or weed control at 70 g/ha [2, 10]: 0 to 29%; pest or weed control at 140 g/ha [2, 10]: 0 to 29%; pest or weed control at 35 g/ha [2, 11]: 0 to 29%; pest or weed control at 70 g/ha [2, 11]: 0 to 29%; pest or weed control at 140 g/ha [2, 11]: 0 to 29%; pest or weed control at 35 g/ha [2, 12]: 0 to 29%; pest or weed control at 70 g/ha [2, 12]: 0 to 29%; pest or weed control at 140 g/ha [2, 12]: 0 to 29%; pest or weed control at 35 g/ha [2, 13]: 0 to 29%; pest or weed control at 70 g/ha [2, 13]: 0 to 29%; pest or weed control at 140 g/ha [2, 13]: 0 to 29%; pest or weed control at 35 g/ha [2, 14]: 0 to 29%; pest or weed control at 70 g/ha [2, 14]: 0 to 29%; pest or weed control at 140 g/ha [2, 14]: 0 to 29%
